{
  "source": "patent US11834401B2",
  "about": "“Treating and preventing diseases by modulating cell mechanics” (THE JOHNS HOPKINS UNIVERSITY, priority 2013, dated 2023)",
  "key": {"[1]": {"tested_on": "NLS-tdTomato expressing Dictyostelium cells", "conditions": "for CIMPAQ hit category, ion channel collection / CIMPAQ hit category, kinase inhibitor collection: BIOMOL pilot screen; for CIMPAQ hit category, ion channel collection: 70 ion channel inhibitors; for CIMPAQ hit category, kinase inhibitor collection: 84 protein kinase inhibitors", "experimental": "NLS-tdTomato expressing Dictyostelium cells were challenged with […] compounds from the ChemBridge Divert-SET library and imaged over three days. Raw data was segmented by CIMPAQ, a designed analytical platform, which rank ordered hits based on their cytokinesis or mitotic inhibitory activity, or lethality. Hits were confirmed through a dose-dependent secondary screening.\nAx3::NLS-tdTomato cells were plated on 384-well COP plates with a MicroFloSelect microplate dispenser (BioTek, Winooski, Vt.) at volumes of 80 μl with a cell concentration of 1000 cells/ml for the 24- and 48-hr time points and at the same volume with a cell concentration of 220 cells/ml for the 72-hr time point. Each plate contained four rows of untreated cells with 0.2% DMSO. For the remaining wells, […] of each small molecule maintained at the Johns Hopkins ChemCORE facility, was added, with a final DMSO concentration of 0.2%. Almost half of the ChemBridge Divert-SET library, which is a 50,000 compound chemical diversity library, was screened over a three-day period on a Becton Dickinson Pathway 855 Bioimager System using a 20× objective (NA 0.75). Each image consisted of a montage of four images collected around the center of the well, resulting in a total size of 1344×1024 pixels per image.\nSecondary chemical screening was carried out in quadruplicate, with identical culturing conditions as to the primary screen. 14 mM stocks of each compounds dissolved in 100% DMSO were diluted to the following final concentrations: […], 3.5 nM, 35 nM, 350 nM, 3.5 μM, and 35 μM.\nRaw image files from both the primary and secondary screening were processed through CIMPAQ (FIGS. 9E and 9F). The single wavelength fluorescence images were converted from 16-bit format to 8-bit format. The MATLAB Image Processing Toolbox was utilized to segment the images in order to identify the nuclei and cytoplasm. The number of nuclei within each segmented cell was quantified to produce a histogram of nuclei per cell for each image (FIG. 9G). All segmented cells that were coincident with the image edge were disregarded.\nImage analysis using CIMPAQ: From the histogram of nuclei per cell count, the ratio of the number of multinucleate cells to the number of mononucleate cells and the ratio of the number of binucleate cells to the number of mononucleate cells were computed. Multinucleate cells are defined as cells that contain >2 nuclei. The distribution of both ratios across multiple wells were simultaneously visualized using a scatter plot, with the ratio of multinucleate cells to mononucleate cells plotted on the x-axis and the ratio of binucleate cells to mononucleate cells plotted on the y-axis (FIGS. 9H and 9I). Other information such as the average number of nuclei per cell, the mean nuclear area, and the normalized histogram with respect to total cell number were also computed.\nHit identification using CIMPAQ: Compounds that generate an increase in the number of multinucleate (>2 nuclei/cell) cells are considered cytokinesis inhibitors. Because nearly all cultured cells, including Dictyostelium, have a low background (typically <5% for WT) of non-mononucleate cells, CIMPAQ spreads the data for each sample by determining the ratio (bi:mono) of binucleate (2 nuclei/cell) to mononucleate cells and the ratio (multi:mono) of multinucleate (>2 nuclei/cell) to mononucleate cells. These two ratios then define a set of Cartesian coordinates, describing the effect of each compound on a given cell-line. The coordinates for each compound are plotted on a two-dimensional graph. CIMPAQ fits the control data to a two-dimensional Gaussian distribution (FIG. 9H) and determines the contour lines for two standard deviations (2SD), 3SD, etc. from the control mean (FIG. 9I).\nHit compounds are rank-ordered based on how many SDs away they are from the untreated wells."}, "[2]": {"assay": "Degradation/stability of carbamate-7 in solvent (TLC, HPLC)", "assay_type": "physicochemical", "conditions": "standing in methanol", "experimental": "Upon standing in methanol, the product obtained above degraded within 2.5 hr, as determined by TLC analysis. Degradation appeared more rapid in DMSO, the solvent used to generate stock solutions for biological evaluation. Thus, carbamate-7 obtained either by chemical synthesis or commercially from ChemBridge was dissolved in DMSO (1 mg/mL), and a time course to study its degradation was initiated immediately upon solvation. To stop the degradation reaction such that the product distribution could be captured at early time points, aliquots (40 μL) were rapidly frozen into Eppendorf tubes incubating on dry ice. HPLC analysis on a Beckman Gold Nouveau HPLC System was performed on each sample immediately upon thawing. Carbamate-7 (5180622) degradation products were eluted at 3 mL/min from a Grace Alltima C18 column (length=53 mm, ID=7 mm, particle size=3 μM) over a linear gradient (5:95 acetonitrile/100 mM NH4OAc (pH 6.8) to 100% 100 mM NH4OAc (pH 6.8) over 15 min).\nComparison of the urea product to authentic N,N′-Bis(3,4-dichlorophenyl) urea was performed using a linear gradient (5:95 acetonitrile/100 mM NH4OAc (pH 6.8) to 100% 100 mM NH4OAc (pH 6.8) over 5 min). […] Confirmation of the urea was further confirmed via characteristic fragmentation patterns determined using product ion (MS-MS) analysis monitoring in negative ion mode (FIG. 11C)."}, "[3]": {"tested_on": "Dictyostelium cells", "assay": "Micropipette aspiration cortical tension, Dictyostelium", "assay_type": "cell-based, Dictyostelium discoideum", "conditions": "acute treatment; 700 μM printed", "experimental": "(§1) Micropipette aspiration was used for cortical tension and creep response measurements. Confocal imaging was performed on a Zeiss 510 Meta with a 63× (numerical aperture [NA] 1.4) objective (Carl Zeiss, Jena, Germany). Epifluorescence and TIRF imaging was performed in a 22° C. temperature controlled room with an Olympus IX81 microscope using a 40× (NA 1.3) or 60× (NA 1.49) objective and a 1.4× optovar (Olympus, Center Valley, Pa.), as previously described. Image analysis was performed with ImageJ (rsb.info.nih.gov/ij).\nThe instrumental and experimental setups have been previously described (Effler J C, et al., 2006; Kee Y-S, et al., 2013). Micropipette aspiration assays were all carried out in growth media with 0.1% DMSO. For cortical tension measurements of Dictyostelium cells, pressure was applied to the cell cortex with a micropipette (2-3 m radius, Rp) to the equilibrium pressure (ΔP) where the length of the cell inside the pipette (Lp) was equal to Rp. The effective cortical tension (Teff) was calculated by applying the Young-Laplace equation: ΔP=2Teff(1/Rp-1/Rc), where Rc is the radius of the cell and ΔP is the equilibrium pressure when Lp=Rp (Derganc J, et al., 2000; Octtaviani E, et al., 2006). For creep tests on mammalian strains, a constant aspiration stress was applied over 60 s. The micropipette radius was 3.5-4.5 m. For quantification, the Lp/Rp ratio values was measured every two seconds and plotted as a function of time. A10.7 and HEK293 cells could only be aspirated at a low pressure range (0.15 nN/μm^2), while HPDE, ASPC-1, and HL-60 cells could be aspirated at higher pressure ranges (0.25 nN/μm^2) because they were stiffer."}, "[4]": {"target": "EGF receptor tyrosine kinase (Homo sapiens, UniProt P00533)", "sequence (P00533 25-1210)": "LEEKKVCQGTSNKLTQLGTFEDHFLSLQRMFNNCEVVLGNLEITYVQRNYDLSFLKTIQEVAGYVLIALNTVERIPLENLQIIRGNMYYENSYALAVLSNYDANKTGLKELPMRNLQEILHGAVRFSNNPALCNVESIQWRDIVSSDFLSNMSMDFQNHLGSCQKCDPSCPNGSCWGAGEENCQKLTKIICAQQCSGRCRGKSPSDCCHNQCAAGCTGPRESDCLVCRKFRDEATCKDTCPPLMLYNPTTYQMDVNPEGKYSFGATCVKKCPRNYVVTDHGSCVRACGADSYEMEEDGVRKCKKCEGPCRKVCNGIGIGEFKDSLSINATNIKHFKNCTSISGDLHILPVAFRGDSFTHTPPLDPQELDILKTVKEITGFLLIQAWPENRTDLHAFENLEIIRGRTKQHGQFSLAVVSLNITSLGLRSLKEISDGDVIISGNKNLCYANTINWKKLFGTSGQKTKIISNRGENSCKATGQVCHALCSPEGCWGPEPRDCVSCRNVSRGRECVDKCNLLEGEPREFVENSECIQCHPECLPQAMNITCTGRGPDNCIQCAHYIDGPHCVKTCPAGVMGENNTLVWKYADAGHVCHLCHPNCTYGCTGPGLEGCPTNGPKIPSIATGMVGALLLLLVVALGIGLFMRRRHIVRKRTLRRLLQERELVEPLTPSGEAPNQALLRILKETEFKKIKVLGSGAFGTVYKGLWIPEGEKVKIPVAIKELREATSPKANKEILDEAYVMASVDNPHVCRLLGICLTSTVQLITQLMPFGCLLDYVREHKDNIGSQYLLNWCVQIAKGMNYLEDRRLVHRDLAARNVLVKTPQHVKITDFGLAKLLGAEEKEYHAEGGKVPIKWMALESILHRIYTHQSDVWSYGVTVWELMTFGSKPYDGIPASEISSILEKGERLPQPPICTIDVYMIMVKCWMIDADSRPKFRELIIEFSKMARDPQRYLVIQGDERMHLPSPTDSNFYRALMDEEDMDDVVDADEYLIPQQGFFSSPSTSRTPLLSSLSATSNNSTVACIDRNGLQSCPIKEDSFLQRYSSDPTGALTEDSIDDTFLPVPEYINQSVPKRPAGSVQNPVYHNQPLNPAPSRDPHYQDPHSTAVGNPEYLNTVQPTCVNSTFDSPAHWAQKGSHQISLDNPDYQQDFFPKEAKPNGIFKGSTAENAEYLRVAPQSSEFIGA", "conditions": "cited from earlier work"}, "[5]": {"target": "T1, myosin II (Dictyostelium discoideum, UniProt P08799)", "T1 construct": "expressed in transfected cells; host or cells: Dictyostelium discoideum myoII null cells rescued with GFP-myosin II", "T1 sequence (P08799 whole entry)": "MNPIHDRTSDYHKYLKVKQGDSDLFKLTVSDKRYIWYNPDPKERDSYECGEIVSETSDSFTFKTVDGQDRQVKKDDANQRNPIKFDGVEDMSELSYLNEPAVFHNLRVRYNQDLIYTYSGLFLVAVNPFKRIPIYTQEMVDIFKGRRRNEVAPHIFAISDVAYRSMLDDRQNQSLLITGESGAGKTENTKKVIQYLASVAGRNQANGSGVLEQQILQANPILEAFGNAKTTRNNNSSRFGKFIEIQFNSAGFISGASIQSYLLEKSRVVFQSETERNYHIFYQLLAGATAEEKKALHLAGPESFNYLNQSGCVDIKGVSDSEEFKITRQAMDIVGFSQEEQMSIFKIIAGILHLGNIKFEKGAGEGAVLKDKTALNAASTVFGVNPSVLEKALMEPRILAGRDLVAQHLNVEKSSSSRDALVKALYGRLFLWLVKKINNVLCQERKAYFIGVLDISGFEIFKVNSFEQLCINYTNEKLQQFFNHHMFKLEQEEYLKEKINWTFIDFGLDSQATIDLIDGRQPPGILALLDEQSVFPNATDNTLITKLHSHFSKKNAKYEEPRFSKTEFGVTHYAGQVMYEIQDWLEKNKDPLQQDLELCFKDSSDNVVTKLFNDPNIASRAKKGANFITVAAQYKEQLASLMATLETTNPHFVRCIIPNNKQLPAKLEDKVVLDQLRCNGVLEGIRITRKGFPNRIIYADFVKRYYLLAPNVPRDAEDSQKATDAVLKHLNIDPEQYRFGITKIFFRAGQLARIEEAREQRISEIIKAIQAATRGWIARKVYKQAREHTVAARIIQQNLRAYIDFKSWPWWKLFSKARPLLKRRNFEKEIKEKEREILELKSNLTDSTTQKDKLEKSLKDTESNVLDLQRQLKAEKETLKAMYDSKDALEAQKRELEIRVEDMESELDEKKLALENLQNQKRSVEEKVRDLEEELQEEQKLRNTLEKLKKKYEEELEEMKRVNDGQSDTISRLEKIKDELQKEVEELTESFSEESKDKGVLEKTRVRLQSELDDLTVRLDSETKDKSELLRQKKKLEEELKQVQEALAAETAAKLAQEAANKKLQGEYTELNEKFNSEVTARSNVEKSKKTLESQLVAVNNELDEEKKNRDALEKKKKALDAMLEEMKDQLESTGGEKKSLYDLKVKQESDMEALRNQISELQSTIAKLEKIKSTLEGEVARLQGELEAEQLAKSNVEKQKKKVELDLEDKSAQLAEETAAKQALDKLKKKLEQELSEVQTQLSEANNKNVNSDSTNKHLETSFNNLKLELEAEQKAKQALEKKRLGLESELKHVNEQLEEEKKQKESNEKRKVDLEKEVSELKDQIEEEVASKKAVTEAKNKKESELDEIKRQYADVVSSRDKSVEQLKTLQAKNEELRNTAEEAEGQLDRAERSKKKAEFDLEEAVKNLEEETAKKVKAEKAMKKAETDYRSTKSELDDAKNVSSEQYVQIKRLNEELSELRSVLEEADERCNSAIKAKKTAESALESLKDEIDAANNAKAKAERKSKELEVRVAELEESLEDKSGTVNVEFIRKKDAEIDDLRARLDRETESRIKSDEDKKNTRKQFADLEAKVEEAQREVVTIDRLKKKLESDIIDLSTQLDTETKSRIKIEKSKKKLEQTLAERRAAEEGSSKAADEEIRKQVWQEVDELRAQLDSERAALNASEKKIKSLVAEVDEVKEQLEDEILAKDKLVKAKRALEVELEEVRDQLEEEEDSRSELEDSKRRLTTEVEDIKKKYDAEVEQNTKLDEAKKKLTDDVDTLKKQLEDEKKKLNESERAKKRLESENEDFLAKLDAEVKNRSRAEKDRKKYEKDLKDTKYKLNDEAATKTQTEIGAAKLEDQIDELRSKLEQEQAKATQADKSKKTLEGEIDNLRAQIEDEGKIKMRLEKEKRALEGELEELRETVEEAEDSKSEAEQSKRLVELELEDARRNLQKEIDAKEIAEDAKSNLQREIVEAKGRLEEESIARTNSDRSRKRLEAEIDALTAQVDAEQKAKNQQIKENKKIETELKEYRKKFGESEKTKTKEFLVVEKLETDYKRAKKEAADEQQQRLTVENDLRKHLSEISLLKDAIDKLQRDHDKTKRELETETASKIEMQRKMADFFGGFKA", "assay": "Myosin II cortical localization by SIM, TIRF and confocal imaging", "assay_type": "cell-based", "conditions": "500 nM time course", "experimental": "as §1\nImaging conditions during primary screen are described above. All other image analysis was performed as previously described (Kee Y S, et al., 2012). Cells were transferred from Petri dishes (with 0.1% DMSO incubation in growth media of 4 hrs) to imaging chambers and allowed to adhere for 20 min in growth media with 0.1% DMSO. After the cells adhered, the growth media was replaced with 2-(N-morpholino)ethanesulfonic acid (MES) starvation buffer (50 mM MES, pH 6.8, 2 mM MgCl2, 0.2 mM CaCl2) with 0.1% DMS. Confocal imaging was performed on aZeiss 510 Meta with a 63× (numerical aperture [NA] 1.4) objective (Carl Zeiss, Jena, Germany). Epifluorescence and TIR imaging was performed in a 22° C. temperature controlled room with an Olympus IX81 microscope using a 40× (NA 1.3) or 60× (NA […]) objective and a 1.4× optovar (Olympus, Center Valley, Pa.), as previously described. Image analysis was performed with ImageJ (rsb.info.nih.gov/ij). Many data sets were independently analyzed by multiple investigators."}},
  "data": [
    {"smiles": "CNc1ccc2oc(C[C@H]3O[C@@]4(CC[C@H]3C)O[C@H]([C@H](C)C(=O)c3ccc[nH]3)[C@H](C)C[C@H]4C)nc2c1C(=O)O", "note": "[Antibiotic A-23187]", "values": [
      {"measurement": "CIMPAQ hit category, ion channel collection", "setting": "[1]", "result": "Lethal at 5 μM"}
    ]},
    {"smiles": "N#CC(=Cc1ccc2[nH]ccc2c1)C(N)=C(C#N)C#N", "note": "[AG-370]", "values": [
      {"measurement": "CIMPAQ hit category, kinase inhibitor collection", "setting": "[1]", "result": "Lethal at 5 μM"}
    ]},
    {"smiles": "C/C(CCc1ccccc1)=N\\Nc1ccc([N+](=O)[O-])cc1", "note": "[4-phenyl-2-butanone (4-nitrophenyl) hydrazone]", "values": [
      {"measurement": "cell division", "setting": "[1]; Dictyostelium Drug Discovery Platform (3DP)", "result": "inhibit cell division"}
    ]},
    {"smiles": "CC(=O)c1ccc(OC(=O)Nc2ccc(Cl)c(Cl)c2)cc1", "note": "[carbamate-7, 4-acetylphenyl-(3,4-dichlorophenyl) carbamate]", "values": [
      {"measurement": "time to degradation", "setting": "[2]", "result": "≤ 2.5", "unit": "h"},
      {"measurement": "increase in cortical tension", "setting": "[3]", "result": 1.4, "unit": "fold"}
    ]},
    {"smiles": "CC(C)COCC(CN(Cc1ccccc1)c1ccccc1)N1CCCC1", "note": "(stereo not drawn) [Bepridil]", "values": [
      {"measurement": "CIMPAQ hit category, ion channel collection", "setting": "[1]", "result": "Lethal at 5 μM"}
    ]},
    {"smiles": "O=C(O)c1cc(NCc2cc(O)ccc2O)ccc1O", "note": "[2-Hydroxy-5-(2,5-dihydroxybenzylamino) benzoic acid]", "values": [
      {"measurement": "CIMPAQ hit category, kinase inhibitor collection", "setting": "[1]", "result": "Lethal at 10 μM"}
    ]},
    {"smiles": "COC(=O)/C=C/c1cc(O)ccc1O", "note": "[Erbstatin analog]", "values": [
      {"measurement": "known IC50", "setting": "[4]", "result": "inhibitor; known IC50 (0.5 μg/ml"}
    ]},
    {"smiles": "CC(C)(C)c1cc(C=C(C#N)C#N)cc(C(C)(C)C)c1O", "note": "[Tyrphostin 9]", "values": [
      {"measurement": "CIMPAQ hit category, kinase inhibitor collection", "setting": "[1]", "result": "Lethal at 5 μM"}
    ]},
    {"smiles": "CCCCCCCCCCCCCCCC(=O)OC(CC(=O)O)C[N+](C)(C)C.[Cl-]", "note": "(racemic) [Palmitoyl-DL-carnitine Cl]", "values": [
      {"measurement": "CIMPAQ hit category, kinase inhibitor collection", "setting": "[1]", "result": "Lethal at 10 μM"}
    ]},
    {"smiles": "COc1cccc(-c2cc(=O)c3ccccc3o2)c1N", "note": "[PD-98059]", "values": [
      {"measurement": "CIMPAQ hit category, kinase inhibitor collection", "setting": "[1]", "result": "Lethal at 5 μM"}
    ]},
    {"smiles": "O=C(Nc1ccc(Cl)c(Cl)c1)Nc1ccc(Cl)c(Cl)c1", "note": "[urea, N,N′-bis(3,4-dichlorophenyl)urea]", "values": [
      {"measurement": "changes in myosin II cortical distribution (TIRF)", "setting": "[5]", "result": "Neither 3,4-DCA nor the urea result in changes in myosin II cortical distribution"}
    ]},
    {"smiles": "Cc1ccc(-c2nn(C(C)(C)C)c3ncnc(N)c23)cc1", "note": "[PP1]", "values": [
      {"measurement": "CIMPAQ hit category, kinase inhibitor collection", "setting": "[1]", "result": "Lethal at 5 μM"}
    ]},
    {"smiles": "COC(=O)Nc1nc2ccc(C(=O)c3cccs3)cc2[nH]1", "note": "[nocodazole]", "values": [
      {"measurement": "identification as early mitotic inhibitor (average nuclear area greater than 28 pixels)", "setting": "[1]", "result": "reliably identified"}
    ]},
    {"smiles": "COc1ccc(CCCOC(Cn2ccnc2)c2ccc(OC)cc2)cc1", "note": "(stereo not drawn) [SKF-96365]", "values": [
      {"measurement": "CIMPAQ hit category, ion channel collection", "setting": "[1]", "result": "Lethal at 5 μM"}
    ]}
  ]
}
